# Source: article PMC6864818, “Antioxidant, Xanthine Oxidase, α-Amylase and α-Glucosidase Inhibitory Activities of Bioactive Compounds from Rumex crispus L. Root” (Molecules, 2019)
# Values joined by “and” are separate entries in the source; they are usually repeats but may differ in a detail not shown here. Equal entries are not always repeated. Where two headings read alike, the source gives them in different places. Marks after values point to notes of the source that are not given here.
# What was measured:
# [1] = DPPH radical scavenging assay; conditions: for IC50: value in brackets
# Procedure: (§1) Antioxidant activity of the isolated compounds was determined using DPPH (2,2-diphenyl-1-picrylhydrazyl) radical scavenging assay, ABTS (2,2′-azinobis-(3-ethylbenzothiazoline-6-sulfonic acid)) radical cation decolorization assay, ferric reducing antioxidant power test (FRAP) following previous study [37, 38, 39] with slight modifications.
# [2] = ABTS radical cation decolorization assay; conditions: ABTS radical scavenging; for IC50: value in brackets
# Procedure: as §1
# [3] = ferric reducing antioxidant power test (FRAP); conditions: for IC50: value in brackets
# Procedure: as §1
# xanthine oxidase [4] = molecular target: T1, xanthine oxidase (Homo sapiens, UniProt P47989); assay: Xanthine oxidase inhibition (XOD), spectrophotometric; type: biochemical
# T1 sequence (P47989 whole entry, species assumed): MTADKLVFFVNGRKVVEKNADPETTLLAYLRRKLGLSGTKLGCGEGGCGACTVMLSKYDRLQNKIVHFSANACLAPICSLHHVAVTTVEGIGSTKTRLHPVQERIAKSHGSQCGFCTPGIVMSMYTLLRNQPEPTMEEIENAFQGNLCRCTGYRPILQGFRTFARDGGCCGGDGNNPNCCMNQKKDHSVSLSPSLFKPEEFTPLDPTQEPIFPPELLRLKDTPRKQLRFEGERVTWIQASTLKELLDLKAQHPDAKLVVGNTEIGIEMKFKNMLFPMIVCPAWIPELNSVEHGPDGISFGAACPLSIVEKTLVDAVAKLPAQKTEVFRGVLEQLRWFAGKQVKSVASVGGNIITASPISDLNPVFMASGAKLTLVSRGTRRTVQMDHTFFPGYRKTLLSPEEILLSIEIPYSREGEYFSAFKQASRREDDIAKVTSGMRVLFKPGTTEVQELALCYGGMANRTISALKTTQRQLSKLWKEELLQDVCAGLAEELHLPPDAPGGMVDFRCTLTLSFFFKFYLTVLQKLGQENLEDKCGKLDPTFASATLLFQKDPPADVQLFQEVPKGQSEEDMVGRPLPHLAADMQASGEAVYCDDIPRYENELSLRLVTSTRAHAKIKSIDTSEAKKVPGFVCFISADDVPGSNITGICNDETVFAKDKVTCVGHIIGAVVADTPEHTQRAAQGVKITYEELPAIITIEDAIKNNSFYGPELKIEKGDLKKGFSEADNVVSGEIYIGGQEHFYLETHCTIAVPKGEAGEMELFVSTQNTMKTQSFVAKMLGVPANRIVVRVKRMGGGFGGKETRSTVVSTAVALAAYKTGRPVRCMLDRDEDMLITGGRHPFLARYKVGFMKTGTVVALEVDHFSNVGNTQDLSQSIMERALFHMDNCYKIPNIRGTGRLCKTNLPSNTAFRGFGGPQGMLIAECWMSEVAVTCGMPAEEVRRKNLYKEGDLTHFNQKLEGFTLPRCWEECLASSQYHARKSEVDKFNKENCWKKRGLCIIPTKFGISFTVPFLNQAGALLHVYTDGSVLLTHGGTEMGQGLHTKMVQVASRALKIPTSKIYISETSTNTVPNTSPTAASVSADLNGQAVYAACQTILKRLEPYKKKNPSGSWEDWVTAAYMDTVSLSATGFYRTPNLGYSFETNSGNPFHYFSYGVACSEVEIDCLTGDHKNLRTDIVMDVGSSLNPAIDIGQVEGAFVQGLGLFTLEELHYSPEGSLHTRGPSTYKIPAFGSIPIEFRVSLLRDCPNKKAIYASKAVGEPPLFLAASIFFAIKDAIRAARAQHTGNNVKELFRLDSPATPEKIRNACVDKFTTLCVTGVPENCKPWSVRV
# α-glucosidase = molecular target: T2, α-glucosidase (Saccharomyces cerevisiae, UniProt P53341); assay: α-Glucosidase inhibition (AGI), pNPG substrate; type: biochemical
# T2 construct: purchased Sigma-Aldrich
# T2 sequence (P53341 whole entry): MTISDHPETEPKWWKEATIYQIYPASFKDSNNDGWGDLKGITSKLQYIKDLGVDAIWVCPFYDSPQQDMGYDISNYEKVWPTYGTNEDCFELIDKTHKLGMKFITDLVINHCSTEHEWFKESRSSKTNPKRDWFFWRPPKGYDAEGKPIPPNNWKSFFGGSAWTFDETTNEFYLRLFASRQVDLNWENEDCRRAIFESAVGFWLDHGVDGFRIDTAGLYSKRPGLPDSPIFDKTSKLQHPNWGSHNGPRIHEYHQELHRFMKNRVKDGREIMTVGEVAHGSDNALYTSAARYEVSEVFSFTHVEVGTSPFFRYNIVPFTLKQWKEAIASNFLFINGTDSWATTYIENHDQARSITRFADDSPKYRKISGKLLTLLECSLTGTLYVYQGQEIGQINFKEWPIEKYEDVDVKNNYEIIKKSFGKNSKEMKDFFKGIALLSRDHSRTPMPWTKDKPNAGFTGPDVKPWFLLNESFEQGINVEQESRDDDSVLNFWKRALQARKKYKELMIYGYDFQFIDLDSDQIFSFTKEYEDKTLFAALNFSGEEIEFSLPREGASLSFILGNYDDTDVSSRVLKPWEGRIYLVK
# Procedure: The α-glucosidase inhibitory activity of isolated fractions was assayed using a synthetic substrate p-nitrophenyl-α-D-glucopyranoside (pNPG). […] (Table 5).
# The anti-α-glucosidase activity of C1–C3 was evaluated using a method described previously with some modifications. In brief, an amount of 20 µL methanolic stock solution of isolated compounds was pre-mixed with an equal volume of 0.1 M potassium phosphate buffer (pH 7) and 40 µL of α-glucosidase (from Saccharomyces cerevisiae, Sigma-Aldrich, St. Louis, MO, USA) enzyme solution (0.5 U/mL in 0.1 M potassium phosphate buffer, pH 7). After 6 min incubation at 25 °C, a 20 µL aliquot of 5 mM p-nitrophenyl-α-D-glucopyranoside (pNPG) substrate (in 0.1 M potassium phosphate buffer, pH 7) was added to each reaction and the mixture was incubated for another 8 min. The reaction was terminated by adding 100 µL of 0.2 M Na2CO3, and absorbance was recorded at 405 nm.
# xanthine oxidase [5] = molecular target: T1, xanthine oxidase; conditions: modified xanthine oxidase inhibition methods; ref [33]; cited from earlier work
SMILES,IC50 DPPH [1],IC50 DPPH ([1]; listed as 1) [µg/mL],IC50 [1] [µM],IC50 ABTS [2],IC50 [2] [µM],IC50 FRAP [3],IC50 [3] [µM],IC50 (xanthine oxidase [4]) [µM],IC50 (xanthine oxidase [4]; value in brackets) [µM],IC50 (α-glucosidase; pNPG) [µM],IC50 (α-glucosidase; value in brackets) [µM],IC50 (xanthine oxidase [5]) [µM],IC50 DPPH ([1]; listed as 2) [µg/mL]
"Cc1cc(O)c2c(c1)C(=O)c1cccc(O)c1C2=O [Fraction C2, 1,8-dihydroxy-3-methylanthraquinone]",10.0 ± 0.3^c µg/mL,9.8,39.4,34.3 ± 0.7^c µg/mL,135,312.6 ± 6.3^c µg/mL,1230,143,143,79.1,79.1,–,–
O=C(O)[C@H]1O[C@@H](Oc2cc3oc(-c4ccccc4)cc(=O)c3c(O)c2O)[C@H](O)[C@@H](O)[C@@H]1O [baicalin],–,–,–,–,–,–,–,–,–,–,–,215,–
COc1c(O)cc(O)c2c(=O)cc(-c3ccccc3)oc12 [wogonin],–,–,–,–,–,–,–,–,–,–,–,157,–
"Cc1cc(C(C)(C)C)c(O)c(C(C)(C)C)c1 [BHT, reference compound]",19.4 µg/mL and 19.2 ± 0.3^b µg/mL,–,87.1,46.9 ± 0.9^b µg/mL,213,422.1 ± 1.1^b µg/mL,1920,–,–,–,–,–,–
"COc1cc(O)c2c(c1)C(=O)c1cc(C)cc(O)c1C2=O [Fraction C3, 1,8-dihydroxy-3-methoxy-6-methylanthraquinone]",12.0 ± 0.2^c µg/mL,–,42.3,44.8 ± 0.8^b µg/mL,158,408.6 ± 6.8^b µg/mL,1440,158,158,66.5,66.5,–,12.1
